# Laboratory results published in ChEMBL document CHEMBL4342469, “Substituent Position of Iminocyclitols Determines the Potency and Selectivity for Gut Microbial Xenobiotic-Reactivating Enzymes” (J Med Chem, 2020).
# Calls of active or inactive are those of the source. The calls are words filed in the database; no cut-off is given here.
# Legend:
# [1] = Inhibition of Bacteroides fragilis GUS pre-incubated for 5 to 30 mins before 4-methylumbelliferone beta-D-glucuronide substrate addition at pH 5.5
# Beta-glucuronidase [2] = target: T1, Beta-glucuronidase (Bos taurus, UniProt A3KMY8); test: Inhibition of bovine GUS pre-incubated for 5 to 30 mins before 4-methylumbelliferone beta-D-glucuronide substrate addition at pH 4.5
# T1 sequence (A3KMY8 whole entry): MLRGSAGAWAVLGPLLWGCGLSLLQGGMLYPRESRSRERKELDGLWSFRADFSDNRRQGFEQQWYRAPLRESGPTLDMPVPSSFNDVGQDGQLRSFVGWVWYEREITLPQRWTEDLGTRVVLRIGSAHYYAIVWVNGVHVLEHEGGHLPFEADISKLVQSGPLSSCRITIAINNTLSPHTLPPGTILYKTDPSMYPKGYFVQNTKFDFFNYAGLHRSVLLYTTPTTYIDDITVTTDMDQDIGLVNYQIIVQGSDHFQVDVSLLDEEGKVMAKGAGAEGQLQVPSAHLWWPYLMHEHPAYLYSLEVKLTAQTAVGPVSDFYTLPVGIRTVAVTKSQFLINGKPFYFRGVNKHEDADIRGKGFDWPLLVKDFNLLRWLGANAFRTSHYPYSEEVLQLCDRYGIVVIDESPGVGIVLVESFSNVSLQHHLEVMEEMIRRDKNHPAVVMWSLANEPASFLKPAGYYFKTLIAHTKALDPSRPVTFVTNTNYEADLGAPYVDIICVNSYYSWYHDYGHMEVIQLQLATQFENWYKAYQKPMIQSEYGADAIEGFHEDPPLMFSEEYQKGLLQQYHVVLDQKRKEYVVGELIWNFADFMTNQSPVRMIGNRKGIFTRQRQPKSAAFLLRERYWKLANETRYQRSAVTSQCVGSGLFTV
# [3] = Inhibition of Ruminococcus gnavus GUS pre-incubated for 5 to 30 mins before 4-methylumbelliferone beta-D-glucuronide substrate addition at pH […]; set-up: species or system Mediterraneibacter gnavus
# [4] = Inhibition of Clostridium perfringens GUS pre-incubated for 5 to 30 mins before 4-methylumbelliferone beta-D-glucuronide substrate addition at pH 5.5
# Beta-glucuronidase [5] = target: T2, Beta-glucuronidase (Escherichia coli (strain K12), UniProt P05804); test: Inhibition of Escherichia coli GUS pre-incubated for 5 to 30 mins before 4-methylumbelliferone beta-D-glucuronide substrate addition at pH 5.5
# T2 sequence (P05804 whole entry): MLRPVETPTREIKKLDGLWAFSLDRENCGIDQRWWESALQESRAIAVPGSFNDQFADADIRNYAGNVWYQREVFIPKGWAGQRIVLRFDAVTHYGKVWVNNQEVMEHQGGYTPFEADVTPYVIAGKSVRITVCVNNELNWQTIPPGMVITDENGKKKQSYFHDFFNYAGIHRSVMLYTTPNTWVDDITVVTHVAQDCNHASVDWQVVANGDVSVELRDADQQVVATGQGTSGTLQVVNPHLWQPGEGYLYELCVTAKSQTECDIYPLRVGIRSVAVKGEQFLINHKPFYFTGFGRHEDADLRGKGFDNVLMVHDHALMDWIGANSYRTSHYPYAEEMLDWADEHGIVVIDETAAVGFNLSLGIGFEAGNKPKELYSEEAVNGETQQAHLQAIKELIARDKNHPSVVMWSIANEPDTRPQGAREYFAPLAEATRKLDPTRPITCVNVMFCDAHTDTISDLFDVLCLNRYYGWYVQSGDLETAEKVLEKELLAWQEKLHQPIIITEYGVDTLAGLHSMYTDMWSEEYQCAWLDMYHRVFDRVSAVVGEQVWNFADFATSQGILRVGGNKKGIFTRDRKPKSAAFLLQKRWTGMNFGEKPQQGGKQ
# Beta-glucuronidase [6] = target: T2, Beta-glucuronidase; test: Inhibition of Escherichia coli GUS pre-incubated for 5 to 30 mins before 4-methylumbelliferone beta-D-glucuronide substrate addition at pH 6.7
# [7] = Inhibition of Bacteroides fragilis GUS pre-incubated for 5 to 30 mins before 4-methylumbelliferone beta-D-glucuronide substrate addition at pH 6.7
# [8] = Inhibition of Ruminococcus gnavus GUS pre-incubated for 5 to 30 mins before 4-methylumbelliferone beta-D-glucuronide substrate addition at pH 6.7; set-up: species or system Mediterraneibacter gnavus
# Beta-glucuronidase [9] = target: T1, Beta-glucuronidase; test: Inhibition of bovine GUS pre-incubated for 5 to 30 mins before 4-methylumbelliferone beta-D-glucuronide substrate addition at pH 6.7
# [10] = Inhibition of Clostridium perfringens GUS pre-incubated for 5 to 30 mins before 4-methylumbelliferone beta-D-glucuronide substrate addition at pH 6.7
# [11] = target: Beta-glucuronidase (Escherichia coli (strain K12)) (UniProt P05804); test: Inhibition of Escherichia coli GUS pre-incubated for 5 to 30 mins before 4-methylumbelliferone beta-D-glucuronide substrate addition at pH 6.5 to 7.9
# Chain of Beta-glucuronidase (Escherichia coli (strain K12)) (P05804 whole entry, looked up): as the sequence (P05804 whole entry) above
# [12] = system: Mediterraneibacter gnavus; test: Inhibition of Ruminococcus gnavus GUS pre-incubated for 5 to 30 mins before 4-methylumbelliferone beta-D-glucuronide substrate addition up to pH 6.9
# Bacteroides fragilis [13] = test: Inhibition of Bacteroides fragilis GUS pre-incubated for 5 to 30 mins before 4-methylumbelliferone beta-D-glucuronide substrate addition at pH 3.6 to 6.9
# [14] = target: Beta-glucuronidase (Escherichia coli (strain K12)) (UniProt P05804); test: Inhibition of Escherichia coli GUS pre-incubated for 5 to 30 mins before 4-methylumbelliferone beta-D-glucuronide substrate addition at pH 3.6 to 6.9
# Bacteroides fragilis [15] = test: Inhibition of Bacteroides fragilis GUS pre-incubated for 5 to 30 mins before 4-methylumbelliferone beta-D-glucuronide substrate addition at pH 6.5 to 7.9
# [16] = (§1) Selectivity index, ratio of Ki for inhibition of Ruminococcus gnavus GUS pre-incubated for 5 to 30 mins before 4-methylumbelliferone beta-D-glucuronide substrate addition at pH 5.5 to Ki for inhibition of Escherichia coli GUS pre-incubated for 5 to 30 mins before 4-methylumbelliferone beta-D-glucuronide substrate addition at pH 5.5
# [17] = as §1, with “Bacteroides fragilis” for “Ruminococcus gnavus”, “Clostridium perfringens” for “Escherichia coli”
Structure (SMILES),Ki [1] [µM],Ki (Beta-glucuronidase [2]) [µM],Ki [3] [µM],Ki [4] [µM],Ki (Beta-glucuronidase [5]) [µM],Ki (Beta-glucuronidase [6]) [µM],Ki [7] [µM],Ki [8] [µM],Ki (Beta-glucuronidase [9]) [µM],Ki [10] [µM],inhibition [11],inhibition [12],inhibition (Bacteroides fragilis [13]),inhibition [14],inhibition (Bacteroides fragilis [15]),Ratio Ki [16],Ratio Ki [17]
O=C(O)[C@H]1NC(=O)[C@H](O)[C@@H](O)[C@@H]1O,0.069,0.132,0.28,0.101,0.232,,,,,,,,,,,,
CCC[C@@H]1NC[C@@H](O)[C@H](O)[C@H]1C(=O)O,7.45,32.2,94.6,0.425,0.182,0.0737,3.66,51.8,5.87,0.179,,,,,,,
O=C(O)[C@H]1OC(=O)[C@H](O)[C@@H](O)[C@@H]1O,0.69,4.87,40.8,4.51,15.8,,,,,,,,,,,,
O=C(O)[C@H]1CNC[C@@H](O)[C@@H]1O,,0.048,0.05,0.011,0.034,0.012,0.0036,0.0039,0.0122,0.0161,Active,Active,Active,Active,Active,,
CCCN1C[C@@H](O)[C@H](O)[C@@H](C(=O)O)C1,38.7,187,17.6,37.3,59.2,41.3,15.5,5.45,61.2,51.8,,,,,,700,190
O=C(O)[C@H]1NC[C@H](O)[C@@H](O)[C@@H]1O,2.41,21.5,21,12.3,17.5,,,,,,,,,,,,
